Data set [1] addresses T1, TbAAT5-3 (Trypanosoma brucei, UniProt Q57UX9).
T1 construct: gene Tb08.4A8.362; full-length ORF (1377 bp incl. stop) in pDR197, untagged, expressed in S. cerevisiae 21.983c; nt 96 resolved as C (Asp)
T1 sequence (Q57UX9 1-458): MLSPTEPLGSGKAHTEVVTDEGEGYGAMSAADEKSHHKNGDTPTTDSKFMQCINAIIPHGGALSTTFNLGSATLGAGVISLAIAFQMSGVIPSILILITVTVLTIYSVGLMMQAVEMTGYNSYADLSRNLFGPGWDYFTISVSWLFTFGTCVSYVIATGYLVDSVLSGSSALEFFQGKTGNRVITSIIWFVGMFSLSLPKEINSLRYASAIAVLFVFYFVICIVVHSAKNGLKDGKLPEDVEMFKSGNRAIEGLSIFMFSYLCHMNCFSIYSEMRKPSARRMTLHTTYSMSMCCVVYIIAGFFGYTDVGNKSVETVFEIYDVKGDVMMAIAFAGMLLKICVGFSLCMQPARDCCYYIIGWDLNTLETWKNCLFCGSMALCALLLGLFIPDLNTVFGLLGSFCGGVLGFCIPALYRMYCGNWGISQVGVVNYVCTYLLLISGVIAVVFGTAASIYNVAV
In words: competition of L-[3H]-arginine uptake in S. cerevisiae […]c. The data set is classed as cell-based. Conditions: 5000 µM; 50 μM L-arginine; pH 6.0.

The target of data set [2] is T1, TbAAT5-3. The data set is described as above. Conditions: 500 µM, 50 μM L-arginine, pH 6.0. The data set is classed as cell-based.
Another data set deals with T2, TbAAT16-1 (Trypanosoma brucei, UniProt Q381K2).
T2 construct: gene Tb11.01.7500; full-length ORF (1389 bp incl. stop) in pDR197, untagged, expressed in S. cerevisiae 22Δ7AA; syntenic TREU927 gene Tb927.11.15840
T2 sequence (Q381K2 1-462): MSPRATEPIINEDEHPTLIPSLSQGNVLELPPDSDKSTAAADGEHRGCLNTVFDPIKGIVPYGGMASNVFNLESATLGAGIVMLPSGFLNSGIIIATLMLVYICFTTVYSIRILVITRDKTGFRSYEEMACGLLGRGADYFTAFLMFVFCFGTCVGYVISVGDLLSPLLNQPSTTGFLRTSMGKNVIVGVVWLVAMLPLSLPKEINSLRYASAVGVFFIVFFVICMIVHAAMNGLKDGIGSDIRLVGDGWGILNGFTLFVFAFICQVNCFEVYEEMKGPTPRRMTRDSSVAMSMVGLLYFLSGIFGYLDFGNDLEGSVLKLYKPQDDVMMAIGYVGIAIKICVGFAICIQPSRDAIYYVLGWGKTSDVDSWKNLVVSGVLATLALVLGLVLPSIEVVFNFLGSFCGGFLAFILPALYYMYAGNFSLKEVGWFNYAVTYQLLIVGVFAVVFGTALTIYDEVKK
In words: competition of L-[3H]-lysine uptake in S. cerevisiae […]Δ7AA. The data set is classed as cell-based. To be noted: 500 µM; 50 μM L-lysine; pH 4.5.

Substrate in data set [3]: NCCCC[C@H](N)C(=O)O
Put plainly: cells, lysate or membranes. To be noted: labelled compound, 30 °C, 100 mM glucose, empty-vector background subtracted, pH of this assay not given.

Substrate in data set [4]: N=C(N)NCCC[C@H](N)C(=O)O
Put plainly: cells, lysate or membranes. Conditions: labelled compound, 30 °C, 100 mM glucose, empty-vector background subtracted, pH of this assay not given. The format is cell-based, Trypanosoma brucei.

As for `CCOC(=O)[C@@H](N)CCCNC(=N)N` [Arginine ethyl ester], the “L-[^3H]-arginine uptake rate (%) / 100x” value at TbAAT5-3 [1] is on record as 72.5 ± 8.7%.

`N=C(N)NCCCC[C@H](N)C(=O)O` [Homoarginine]: at TbAAT5-3 [2], the “L-[^3H]-arginine uptake rate (%) / 10x” value was 25.6 ± 4.2%.

Regarding `NCCCC[C@H](NC(=O)OCC1c2ccccc2-c2ccccc21)C(=O)O` [Fmoc-Lysine, N-α-(9-fluorenylmethyloxycarbonyl)-L-lysine], the “L-[^3H]-lysine uptake rate (%) / 10x” value at TbAAT16-1 came out at 57.6 ± 6.9%.

In the case of `N=C(N)NCCC[C@H](N)C(=O)Nc1ccc2ccccc2c1` [Arginine-β-naphthylamide], the “L-[^3H]-arginine uptake rate (%) / 10x” value at TbAAT5-3 [2] (unspecific effect of the amphipathic compound not excluded) is listed as 69 ± 6.6%.

In the case of `NCCSC[C@H](N)C(=O)O` [Thialysine, S-(2-aminoethyl)-L-cysteine], the “L-[^3H]-lysine uptake rate (%) / 10x” value on TbAAT16-1 was found to be 35.3 ± 1.8%.

For `N=C(N)NOCC[C@H](N)C(=O)O` [Canavanine], the “L-[^3H]-arginine uptake rate (%) / 10x” value at TbAAT5-3 [2] came out at 38.5 ± 4.5%.

Consider `NCCCC[C@H](N)C(=O)O` [L-lysine], for which the “L-[^3H]-arginine uptake rate (%) / 100x” value at TbAAT5-3 [1] is reported as 56.5 ± 8.2%.

In the case of `COC(=O)[C@@H](N)CCCNC(=N)N` [Arginine methyl ester], the “L-[^3H]-arginine uptake rate (%) / 100x” value on TbAAT5-3 [1] is 67.6 ± 10.3%.

B1: TbAAT16-1 (Trypanosoma brucei brucei TREU927) (protein)
chain: MSPRATEPIINEDEHPTLIPSLSQGNVLELPPDSDKSTAAADGEHRGCLNTVFDPIKGIVPYGGMASNVFNLESATLGAGIVMLPSGFLNSGIIIATLMLVYICFTTVYSIRILVITRDKTGFRSYEEMACGLLGRGADYFTAFLMFVFCFGTCVGYVISVGDLLSPLLNQPSTTGFLRTSMGKNVIVGVVWLVAMLPLSLPKEINSLRYASAVGVFFIVFFVICMIVHAAMNGLKDGIGSDIRLVGDGWGILNGFTLFVFAFICQVNCFEVYEEMKGPTPRRMTRDSSVAMSMVGLLYFLSGIFGYLDFGNDLEGSVLKLYKPQDDVMMAIGYVGIAIKICVGFAICIQPSRDAIYYVLGWGKTSDVDSWKNLVVSGVLATLALVLGLVLPSIEVVFNFLGSFCGGFLAFILPALYYMYAGNFSLKEVGWFNYAVTYQLLIVGVFAVVFGTALTIYDEVKK
On to B1, for which the Km – broadly, the concentration of substrate that gives half-maximal velocity – in data set [3] came out at 4.3 ± 0.5 µM.

B2: TbAAT5-3 (Trypanosoma brucei brucei TREU927) (protein)
chain: MLSPTEPLGSGKAHTEVVTDEGEGYGAMSAADEKSHHKNGDTPTTDSKFMQCINAIIPHGGALSTTFNLGSATLGAGVISLAIAFQMSGVIPSILILITVTVLTIYSVGLMMQAVEMTGYNSYADLSRNLFGPGWDYFTISVSWLFTFGTCVSYVIATGYLVDSVLSGSSALEFFQGKTGNRVITSIIWFVGMFSLSLPKEINSLRYASAIAVLFVFYFVICIVVHSAKNGLKDGKLPEDVEMFKSGNRAIEGLSIFMFSYLCHMNCFSIYSEMRKPSARRMTLHTTYSMSMCCVVYIIAGFFGYTDVGNKSVETVFEIYDVKGDVMMAIAFAGMLLKICVGFSLCMQPARDCCYYIIGWDLNTLETWKNCLFCGSMALCALLLGLFIPDLNTVFGLLGSFCGGVLGFCIPALYRMYCGNWGISQVGVVNYVCTYLLLISGVIAVVFGTAASIYNVAV
notes: full-length ORF (1377 bp incl. stop) in pDR197, untagged, expressed in S. cerevisiae 21.983c; nt 96 resolved as C (Asp)
For B2, the Km in data set [4] is 3.6 ± 0.4 µM.

(Values after article PMC5207785, “Arginine and Lysine Transporters Are Essential for Trypanosoma brucei” (PLoS ONE, 2017).)
